Source: patent US4626540A, “Substituted 1-amino-4-nitro-acridinones and methods of treating bacterial infections and leukemia with them” (Warner-Lambert Company, priority 1984, dated 1986)
Like-named read-outs stand apart in the source and are kept apart here.

What was measured:
[1] = tested on: Branhamella catarrhalis; assay: In vitro antibacterial (ABMF) microdilution test, Branhamella catarrhalis; assay type: cell-based; details: Moraxella catarrhalis; Mueller-Hinton broth, 37° C., 16-24 hours; read-out: ABMF minimal inhibitory conc, B. cat.
From the text: (§1) Still another test protocol is the in vitro antibacterial (ABMF) test which is a recognized standard microdilution susceptibility procedure in Mueller-Hinton broth against Gram-positive and Gram-negative bacterial test organisms. The procedure is a modification of a state-of-the-art procedure reported in Manual of Clinical Microbiology, Lennette, E. H., ed., by Barry, A. L. and C. Thornsberry at pages 463-474 and by Gavan, T. L. and A. L. Barry at pages 459-462, American Society for Microbiology, Washington, 1980.
(§2) In the test, a given bacterial culture is used to inoculate individual test wells of microdilution trays containing growth medium and test compound, the latter in a microdilution series: 1000, 333, 111, 37, 12, 4, 1.4, and 0.46 micrograms per milliliter. […] For convenience, values are reported for Escherichia coli, Corynebacterium Sp. ATCC 21698, Branhamella catarrhalis, Streptococcus pneumoniae, and Bacillus cereus.

[2] = tested on: Bacillus cereus; assay: In vitro antibacterial (ABMF) microdilution test, Bacillus cereus; assay type: cell-based; details: Mueller-Hinton broth, 37° C., 16-24 hours, read-out: ABMF minimal inhibitory conc, B. cer.
From the text: as §1, §2

[3] = tested on: Streptococcus pneumoniae; assay: In vitro antibacterial (ABMF) microdilution test, Streptococcus pneumoniae; assay type: cell-based; details: Mueller-Hinton broth, 37° C., 16-24 hours, read-out: ABMF minimal inhibitory conc, S. pneu.
From the text: as §1, §2

[4] = tested on: lymphocytic leukemia P388; assay: In vivo lymphocytic leukemia P388 test; design: species or system CD2 F1 mice; details: Mus musculus, P388, ip, read-out: P388 in vivo T/C × 100
Procedure: Another test protocol is the in vivo lymphocytic leukemia P388 test. the animals used are either male or female CD2 F1 mice, six or seven animals per test group. The tumor transplant is by intraperitoneal injection of dilute ascitic fluid containing cells of lymphocytic leukemia P388. The test compounds are administered intraperitoneally once daily for five consecutive days at various doses following tumor inoculation. The animals are weighed and survivors are recorded on a regular basis for 30 days. A compound is designated "toxic" if, at a given dose, all animals die prior to four days after the first injection of drug. A ratio of survival time for treated (T)/control (C) animals is calculated. A criterion for efficacy is a ratio T/C times 100 greater than or equal to 125. See Cancer Chemotherapy Reports, Part 3, 3, 1 (1972) for a comprehensive discussion of the protocol.

[5] = tested on: Escherichia coli; assay: In vitro antibacterial (ABMF) microdilution test, Escherichia coli; assay type: cell-based; details: Mueller-Hinton broth, 37° C., 16-24 hours, read-out: ABMF minimal inhibitory conc, E. coli
From the text: as §1, §2

[6] = tested on: Corynebacterium Sp. ATCC 21698; assay: In vitro antibacterial (ABMF) microdilution test, Corynebacterium Sp.; assay type: cell-based; details: ATCC21698, Mueller-Hinton broth, 37° C., 16-24 hours, read-out: ABMF minimal inhibitory conc, Coryn. Species
From the text: as §1, §2

[7] = tested on: L1210 murine leukemia cell lines; assay: In vitro antitumor screening (PDC test), L1210 murine leukemia cell growth; assay type: cell-based; details: Mus musculus, 72 h; L1210 cells, 37° C., three days; value is ID50 multiplied by 10^7
Procedure: Another test protocol is the in vitro antitumor screening (PDC test) of compounds of the present invention on L1210 murine leukemia cell lines. L1210 cells, a murine leukemia cell line, were grown in RPMI 1640 supplemented with 5% fetal bovine serum and gentamicin (50 μg/ml).
Drug dilutions were prepared in the apropriate solvent and 20 μl of each dilution were added to 24-well Linbro tissue culture plats, followed by the addition of M 2.0 ml of cell suspension containing 3×10^4 cells per ml. Solvent and medium controls were included in each test. After incubation at 37° C. for three days in 5% CO2, the contents of each well were removed and the cells counted in a ZBI Coulter counter. Percent growth was calculated relative to the controls and the levels of drug activity wre expressed as ID50 in moles per liter using probit paper.

[8] = tested on: HCT-8 cells; assay: In vitro proliferating human colon adenocarcinoma (HCA) cell screen, HCT-8 cells; assay type: cell-based; details: 60-65 hours at 37° C., value is ID50 multiplied by 10^7;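 also: ID50 is the molar concentration giving 50% growth inhibition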
Procedure: One test protocol is the in vitro proliferating human colon adenocarcinoma (HCA) cell screen. In this test, HCT-8 cells (HCA cell line received from Yale University) are trypsinized using trypsin-EDTA. A single cell suspension is achieved by passing the cells through a 26-gauge needle with a 20-cc syringe. A cell suspension is prepared using RPMI 1640+10% FCS+50 μg/ml gentamicin sulfate with a cell concentration of approximately 5,000 cells/ml. The cell suspension is dispensed in Linbro 24-well plates; 1 ml/well. The plates are incubated for approximately 48 hours at 37° C. in a 5% CO2 atmosphere. At this time test compounds are added in the appropriate concentration. Ten μl of the appropriate dilution is added to each well for a titration test. The plates are reincubated an additional 60-65 hours at 37° C. in a 5% CO2 atmosphere. The cells are lysed using a mix of cationic surfactant, glacial acetic acid and sodium chloride. Two ml of the lysed cell suspension from each well is added to 8 ml of diluent. The number of nuclei is determined using a Coulter counter (ZBI model), and a percent growth for each drug concentration is calculated.

[9] = intraperitoneal, once daily for five days, survival time treated/control
[10] = 50 mg/kg, intraperitoneal, once daily for five days, survival time treated/control

| MIC [1] [µg/mL] | MIC [2] [µg/mL] | MIC [3] [µg/mL] | MIC [5] [µg/mL] | MIC [6] [µg/mL] | IC50 [7] [nM] | IC50 [8] [nM] | Compound | response vs control in vivo at 12.5 mg/kg [4, 9] [%] | response vs control in vivo at 25 mg/kg [4, 9] [%] | response vs control in vivo at 50 mg/kg [4, 10] [%] | response vs control in vivo at 100 mg/kg [4, 9] [%] | response vs control in vivo at 6.25 mg/kg ([4]; 6.25 mg/kg, intraperitoneal, once daily for five days, survival time treated/control) [%] | response vs control in vivo at 200 mg/kg [4, 9] [%] | response vs control in vivo at 50 mg/kg ([4]; 120 h) [%] |
| --- | --- | --- | --- | --- | --- | --- | --- | --- | --- | --- | --- | --- | --- | --- |
| < 0.46 | 12.3 | 1.4 | < 0.46 | < 0.46 | 320 | 200 | CCOc1ccc2[nH]c3c([N+](=O)[O-])ccc(NCCCN(C)C)c3c(=O)c2c1.CS(=O)(=O)O [Example 23, 1-[[(Dimethylamino)propyl]amino]-7-ethoxy-4-nitro-9(10H)acridinone, methanesulfonate] | 135 | 157 | 210 |  |  |  |  |
| 4.1 | 4.1 | < 0.46 | 1.4 | 4.1 | 880 | 450 | COc1ccc2[nH]c3c([N+](=O)[O-])ccc(NC(C)CN(C)C)c3c(=O)c2c1 (stereo not shown) [Example 12, 1-[[2-Dimethylamino)-1-methylethyl]amino]-7-methoxy-4-nitro-9(10H)-acridinone, methanesulfonate, 1.25 hydrate] |  | 122 | 144 | 180 |  | 245 |  |
| 111 | > 1000 | > 1000 | > 1000 | > 1000 | 1500 | 1010 | CCOc1ccc2[nH]c3c([N+](=O)[O-])ccc(NCCN(CCO)CCO)c3c(=O)c2c1 [Example 19, 1-[[2-Bis(2-hydroxyethyl)amino]ethyl]amino]-7-ethoxy-4-nitro-9(10H)-acridinone, methanesulfonate 0.8 hydrate] |  |  |  | 130 |  | 147 |  |
| < 0.46 | 4.1 | < 0.46 | 1.4 | < 0.46 | 570 | 200 | CN(C)CCCNc1ccc([N+](=O)[O-])c2[nH]c3ccccc3c(=O)c12.CS(=O)(=O)O [Example 20, 1-[[3-(Dimethylamino)propyl]amino]-4-nitro-9(10H)-acridinone, methanesulfonate (1:1)] |  |  | 144 | 189 |  |  |  |

Further lines, the compound ahead of its results:

| Compound | MIC [1] [µg/mL] | MIC [2] [µg/mL] | MIC [3] [µg/mL] | MIC [5] [µg/mL] | MIC [6] [µg/mL] | IC50 [7] [nM] | IC50 [8] [nM] | response vs control in vivo at 12.5 mg/kg [4, 9] [%] | response vs control in vivo at 25 mg/kg [4, 9] [%] | response vs control in vivo at 50 mg/kg [4, 10] [%] | response vs control in vivo at 100 mg/kg [4, 9] [%] | response vs control in vivo at 6.25 mg/kg ([4]; 6.25 mg/kg, intraperitoneal, once daily for five days, survival time treated/control) [%] | response vs control in vivo at 200 mg/kg [4, 9] [%] | response vs control in vivo at 50 mg/kg ([4]; 120 h) [%] |
| --- | --- | --- | --- | --- | --- | --- | --- | --- | --- | --- | --- | --- | --- | --- |
| CCOc1ccc2[nH]c3c([N+](=O)[O-])ccc(NCCN(CC)CC)c3c(=O)c2c1.CS(=O)(=O)O [Example 4, 1-[[2-(Diethylamino)ethyl]amino]-7-ethoxy-4-nitro-9(10H)-acridinone, methanesulfonate (1:1)] | 37 | > 1000 | > 1000 | > 1000 | 4.1 | 680 | 400 | 129 | 149 | 211 | 273 |  |  |  |
| CCOc1ccc2[nH]c3c([N+](=O)[O-])ccc(NCCNCCO)c3c(=O)c2c1.CS(=O)(=O)O [Example 17, 7-Ethoxy-1-[[2-[(2-hydroxyethyl)amino]ethyl]amino]-4-nitro-9(10H)-acridinone, methanesulfonate] | 1.4 | 4.1 | 1.4 | < 0.46 | < 0.46 | 180 | 120 |  | 124 | 138 |  |  |  |  |
| COc1ccc2[nH]c3c([N+](=O)[O-])ccc(NCCCN(C)C)c3c(=O)c2c1 [Example 22, 1-[[3-(Dimethylaminopropyl)amino]-7-methoxy-4-nitro-9(10H)-acridinone, methanesulfonate (1:1), hemihydrate] | < 0.46 | 4.1 | < 0.46 | 1.4 | < 0.46 | 1200 | 260 | 156 | 178 | 225 | 205 | 138 |  |  |
| CCOc1ccc2[nH]c3c([N+](=O)[O-])ccc(NC(C)CN(C)C)c3c(=O)c2c1 (stereo not shown) [Example 13, 1[[2-(Dimethylamino)-1-methylethyl]amino]-7-ethoxy-4-nitro-9(10H)-acridinone, monomethanesulfonate, hyrate] | 4.1 | 12.3 | 1.4 | 12.3 | < 0.46 | 1090 | 500 |  | 180 |  |  |  |  | 227 |
| CCOc1ccc2[nH]c3c([N+](=O)[O-])ccc(NCCN(C)C)c3c(=O)c2c1.CS(=O)(=O)O [Example 10, 1-[[2-(Dimethylamino)ethyl]amino]-7-ethoxy-4-nitro-9(10H)-acridinone, methanesulfonate (1:1)] | > 1000 | > 1000 | > 1000 | > 1000 | > 1000 | 810 | 360 |  | 128 | 162 | 193 |  | 260 |  |
| COc1ccc2c(c1)c(=O)c1c(NCCCN(C)C)ccc([N+](=O)[O-])c1n2C.CS(=O)(=O)O [Example 34, 1-[[3-(Dimethylamino)propyl]amino]-7-methoxy-10-methyl-4-nitro-9(10H)-acridinone, methanesulfonate (1:1)] | 12.3 | 12.3 | 12.3 | 12.3 | 12.3 | 780 | 710 |  |  | 123 | 136 |  |  |  |
| O=c1c2ccccc2[nH]c2c([N+](=O)[O-])ccc(NCCNCCO)c12 [Example 16, 1-[[2-[(2-hydroxyethyl)amino]ethyl]amino]-4-nitro-9(10H)-acridinone, methanesulfonate (1:1), hydrate (1:1)] | < 0.46 | 1.4 | 1.4 | 1.4 | < 0.46 | 330 | 200 |  | 125 | 159 |  |  |  |  |
